Consider 51 compounds from PubChem BioAssay AID1996.

In general, kinetic solubility refers to the concentration staying in solution when a stock, usually in DMSO, is diluted into the medium.

In brackets after ≈: the same amount, converted by molar mass.

For this series the following is noted: buffer; pH 7.4; 200.0 µM.
`O=C(NCC1CCCO1)c1cccc(S(=O)(=O)Nc2cccc(C(F)(F)F)c2)c1` (stereo unspecified) returned a solubility (kinetic) of 2.1 µg/mL (≈ 4.9 µM). Then `Brc1ccc(CN2CCN(c3ccccc3)CC2)o1`, with 22.5 µg/mL (≈ 70 µM); and `O=C(COC(=O)c1cc(=O)[nH]c2ccccc12)NCc1ccccc1Cl`, with 4.1 µg/mL (≈ 11.1 µM); and `Cc1ccccc1NC(=O)NC1CCCCCCC1`, with 1.5 µg/mL (≈ 5.76 µM).

In turn, `CNC(=O)N(C)c1ccc(C(O)(C(=O)OC)C(F)(F)F)cc1` (stereo unspecified) gave a solubility (kinetic) of 46.7 µg/mL (≈ 146 µM). The value for `O=C(Nc1ccc(F)cc1)C1COc2ccccc2O1` (stereo unspecified) was 39.8 µg/mL (≈ 146 µM); that for `Cn1c(C(=O)c2ccccc2)nc2ccccc21` was 24 µg/mL (≈ 102 µM).

In turn, `Cc1nc(C(=O)N2CCCC(Nc3ccc(C)c(C)c3)C2)cs1` (stereo unspecified) gave a solubility (kinetic) greater than 49.4 µg/mL. The value for `Oc1ccc(Nc2nc(-c3ccccc3O)nc3ccccc23)cc1` was 2.1 µg/mL (≈ 6.38 µM).

In turn, `O=C(O/N=C1/CCCc2occc21)c1ccc(F)cc1` registered a solubility (kinetic) of 0.9 µg/mL (≈ 3.29 µM). Then `CCN(CC)CCCNc1ncnc2ccccc12.Cl`, with 42.3 µg/mL. Then `CC(=O)c1ccc(N2CCN(C3CCC(C(C)(C)C)CC3)CC2)cc1` (stereo unspecified), with 0.8 µg/mL (≈ 2.34 µM); and `CC1CCN(C(=O)Cn2cc(C(F)(F)F)ccc2=O)c2ccccc2S1` (stereo unspecified), with greater than 57.4 µg/mL. The value for `Cc1cccc2sc(NS(=O)(=O)c3ccccc3)nc12` was greater than 45.7 µg/mL. With `Cc1ccc(OCCNC(=O)c2ccc(C)o2)cc1`, the solubility (kinetic) was greater than 38.9 µg/mL. As to `CCCCOc1cc(C(=O)OCCN(CC)CC)ccc1N`, the kinetic solubility was 42.7 µg/mL (≈ 138 µM). The value for `NC(=O)C12CCCC(Br)(CCC1)C2` was 36.2 µg/mL (≈ 147 µM); that for `CC(=O)Nc1ccc(S(=O)(=O)N2CCSC2)cc1` was 29.8 µg/mL (≈ 104 µM); that for `Cc1cc(C)c(C)c(S(=O)(=O)NCc2ccncc2)c1C` was 25.8 µg/mL (≈ 84.8 µM). For `Cc1cccc(NC(=O)NCCN2CCN(c3ccccc3)CC2)c1C`, the solubility (kinetic) stood at 11.5 µg/mL (≈ 32.6 µM).

For `FC(F)(F)c1ccc(Cl)c(NC2=NCCCCC2)c1`, the solubility (kinetic) is greater than 43.6 µg/mL.

`Cc1ccc(OCCn2cc(/C=C/C(=O)O)c3ccccc32)cc1`: the solubility (kinetic) is greater than 48.2 µg/mL. The value for `Cc1ccc(N/C=C2\CCCCC2=O)nc1` was 31.6 µg/mL (≈ 146 µM); that for `O=C(COC(=O)c1ccc2ccccc2n1)c1ccccc1` was 42.3 µg/mL (≈ 145 µM). The value for `O=C(CN1C(=O)NC2(CCCCCC2)C1=O)N1CCCCC1` was greater than 46.1 µg/mL; that for `COc1ccc(N=Cc2cc(Cl)ccc2O)cc1Cl` was 18 µg/mL (≈ 60.8 µM). Then `Cc1ccc(NC(=O)C2CCCN(C(=O)Nc3ccc(F)cc3)C2)cc1` (stereo unspecified), with 13.4 µg/mL (≈ 37.7 µM).

`O=C1c2ccccc2C(=O)N1c1ccc(Cc2ccncc2)cc1` came in with a kinetic solubility of 44.9 µg/mL (≈ 143 µM). For the compound `N=C1SCC(=O)N1c1ncc(Cc2ccccc2Cl)s1`, the solubility (kinetic) worked out at 2.2 µg/mL (≈ 6.79 µM). Then `O=C(CN1CCN(Cc2ccc(F)cc2)CC1)Nc1ccccc1F`, with greater than 51.8 µg/mL. The value for `CC(C)(C)C(=O)OCc1nc(-c2ccc3c(c2)OCCO3)cs1` was less than 0.7 µg/mL; that for `O=C1CC(c2ccccc2)CC(=O)N1c1ccccc1` was 11.3 µg/mL (≈ 42.6 µM).

For `O=[N+]([O-])c1ccc2ccn(C3OCC(O)C(O)C3O)c2c1` (stereo unspecified), the kinetic solubility is greater than 44.1 µg/mL. `CCNC(=S)N1CCC(C(=O)c2ccc(Cl)cc2)CC1` registered a solubility (kinetic) greater than 46.6 µg/mL. The value for `COc1ccc(Cl)cc1C(=O)OCC(=O)N1CCCC(C)C1` (stereo unspecified) was greater than 48.9 µg/mL.

In turn, `COc1ccccc1N1CCN(C(=O)c2cccc(S(=O)(=O)Nc3ccccc3F)c2)CC1.Cl` had a solubility (kinetic) greater than 75.9 µg/mL. The value for `COc1ccc(CNC(=O)c2cc(=O)c3c(C)cc(C)cc3o2)cc1` was less than 0.7 µg/mL. Then `CCN(CC)C(=O)c1cc2c(=O)n3cccc(C)c3nc2s1`, with 43.4 µg/mL (≈ 138 µM); and `COc1cc(NC(=O)Cc2ccccc2)c(C(=O)O)cc1OC`, with 43.5 µg/mL (≈ 138 µM); and `Cc1nc(-c2cccc(NC(=O)Cc3ccccc3)c2)cs1`, with 30.1 µg/mL (≈ 97.6 µM). The value for `CC(=O)c1cccn1S(=O)(=O)c1ccccc1` was 36.9 µg/mL (≈ 148 µM); that for `COc1ccc(NS(=O)(=O)c2c(C)cc(C)cc2C)cn1` was 5.3 µg/mL (≈ 17.3 µM). Turning to `COC(=O)c1cc(CSc2nc3ccccc3c(=O)n2C)oc1C`, the solubility (kinetic) came out at 4.4 µg/mL (≈ 12.8 µM).

Consider `COc1ccc(Cn2cc(F)c(=O)n(C)c2=O)cc1[N+](=O)[O-]`, for which the solubility (kinetic) worked out at 42.8 µg/mL (≈ 138 µM). Then `O=C(COC(=O)c1ccc(Br)o1)NCc1ccccc1Cl`, with 9 µg/mL (≈ 24.2 µM). The value for `CCOC(=O)C1CCN(C(=O)/C=C/c2ccc3c(c2)OCO3)CC1` was greater than 49.7 µg/mL. Then `Cc1csc(NC(=O)Cc2ccc(Cl)cc2)n1`, with 22.2 µg/mL (≈ 83.2 µM); and `Cc1cc(C)c(C(=O)NCC(=O)c2ccccc2)c(C)c1`, with 8.8 µg/mL (≈ 31.3 µM); and `Cc1ccccc1CSc1ncnc2ccccc12`, with 0.3 µg/mL (≈ 1.13 µM). `COCCNC(=S)N1CCCC(CO)C1` (stereo unspecified) had a kinetic solubility greater than 34.9 µg/mL.

In turn, `Cc1cccc(C(CC(=O)NCc2ccco2)c2ccccc2)c1O` (stereo unspecified) had a kinetic solubility greater than 50.3 µg/mL.
